Measured values taken from ChEMBL document CHEMBL4673219, “Novel 5,6-disubstituted pyrrolo[2,3-d]pyrimidine derivatives as broad spectrum antiproliferative agents: Synthesis, cell based assays, kinase profile and molecular docking study” (Bioorg Med Chem, 2018).
Where “and” joins values, the source holds several entries; their conditions need not be identical. Identical values can stand only once.

Columns and labels:
Assay type in all cases: functional
DU-145 = assay: Growth inhibition of human DU-145 cells assessed as growth percentage at 10 uM incubated for 48 hrs by sulforhodamine B assay relative to control; conditions: read-out: Activity
A498 [1] = assay: Growth inhibition of human A498 cells assessed as growth percentage at 10 uM incubated for 48 hrs by sulforhodamine B assay relative to control; conditions: read-out: Activity
786-0 [2] = assay: Growth inhibition of human 786-0 cells assessed as growth percentage at 10 uM incubated for 48 hrs by sulforhodamine B assay relative to control; conditions: read-out: Activity
NCI/ADR-RES = assay: Growth inhibition of human NCI/ADR-RES cells assessed as growth percentage at 10 uM incubated for 48 hrs by sulforhodamine B assay relative to control; conditions: read-out: Activity
HOP-92 = assay: Growth inhibition of human HOP-92 cells assessed as growth percentage at 10 uM incubated for 48 hrs by sulforhodamine B assay relative to control; conditions: read-out: Activity
RPMI-8226 = assay: Growth inhibition of human RPMI-8226 cells assessed as growth percentage at 10 uM incubated for 48 hrs by sulforhodamine B assay relative to control; conditions: read-out: Activity
TK-10 = assay: Growth inhibition of human TK-10 cells incubated for 48 hrs by sulforhodamine B assay; conditions: for GI50 / TGI: TK-10
SN12C [3] = assay: Growth inhibition of human SN12C cells incubated for 48 hrs by sulforhodamine B assay
786-0 [4] = assay: Growth inhibition of human 786-0 cells incubated for 48 hrs by sulforhodamine B assay
OVCAR-8 [5] = assay: Growth inhibition of human OVCAR-8 cells incubated for 48 hrs by sulforhodamine B assay; conditions: for CC50: read-out: LC50 (the source's name)
IGROV-1 [6] = assay: Growth inhibition of human IGROV-1 cells incubated for 48 hrs by sulforhodamine B assay
NCI-H226 [7] = assay: Growth inhibition of human NCI-H226 cells incubated for 48 hrs by sulforhodamine B assay; conditions: for CC50: read-out: LC50 (the source's name); for TGI: NCI-H226
HOP-62 = assay: Growth inhibition of human HOP-62 cells incubated for 48 hrs by sulforhodamine B assay
MDA-MB-468 = assay: Growth inhibition of human MDA-MB-468 cells assessed as growth percent at 0.1 uM incubated for 48 hrs by sulforhodamine B assay relative to control; conditions: read-out: Activity
SN12C [8] = assay: Growth inhibition of human SN12C cells assessed as growth percentage at 100 uM incubated for 48 hrs by sulforhodamine B assay relative to control; conditions: read-out: Activity
CAKI-1 = assay: Growth inhibition of human CAKI-1 cells assessed as growth percentage at 100 uM incubated for 48 hrs by sulforhodamine B assay relative to control; conditions: read-out: Activity
OVCAR-4 = assay: Growth inhibition of human OVCAR-4 cells assessed as growth percentage at 100 uM incubated for 48 hrs by sulforhodamine B assay relative to control; conditions: read-out: Activity
LOX IMVI = assay: Growth inhibition of human LOX IMVI cells assessed as growth percentage at 100 uM incubated for 48 hrs by sulforhodamine B assay relative to control; conditions: read-out: Activity
IGROV-1 [9] = assay: Growth inhibition of human IGROV-1 assessed as growth percent at 1 uM incubated for 48 hrs by sulforhodamine B assay relative to control; conditions: read-out: Activity
U-251 = assay: Growth inhibition of human U-251 cells assessed as growth percentage at 1 uM incubated for 48 hrs by sulforhodamine B assay relative to control; conditions: read-out: Activity
NCI-H322M [10] = assay: Growth inhibition of human NCI-H322M cells assessed as growth percentage at 1 uM incubated for 48 hrs by sulforhodamine B assay relative to control; conditions: read-out: Activity
OVCAR-8 [11] = assay: Growth inhibition of human OVCAR-8 cells assessed as growth percentage at 0.1 uM incubated for 48 hrs by sulforhodamine B assay relative to control; conditions: read-out: Activity
MDA-MB-435 = assay: Growth inhibition of human MDA-MB-435 cells assessed as growth percentage at 0.1 uM incubated for 48 hrs by sulforhodamine B assay relative to control; conditions: read-out: Activity
SF-295 = assay: Growth inhibition of human SF-295 cells assessed as growth percentage at 0.1 uM incubated for 48 hrs by sulforhodamine B assay relative to control; conditions: read-out: Activity
KM12 = assay: Growth inhibition of human KM12 cells assessed as growth percentage at 0.1 uM incubated for 48 hrs by sulforhodamine B assay relative to control; conditions: read-out: Activity
HT-29 = assay: Growth inhibition of human HT-29 cells assessed as growth percentage at 0.1 uM incubated for 48 hrs by sulforhodamine B assay relative to control; conditions: read-out: Activity
HCC 2998 = assay: Growth inhibition of human HCC 2998 cells assessed as growth percentage at 0.1 uM incubated for 48 hrs by sulforhodamine B assay relative to control; conditions: read-out: Activity
NCI-H322M [12] = assay: Growth inhibition of human NCI-H322M cells assessed as growth percentage at 0.1 uM incubated for 48 hrs by sulforhodamine B assay relative to control; conditions: read-out: Activity
NCI-H226 [13] = assay: Growth inhibition of human NCI-H226 cells assessed as growth percentage at 0.1 uM incubated for 48 hrs by sulforhodamine B assay relative to control; conditions: read-out: Activity
K562 [14] = assay: Growth inhibition of human K562 cells assessed as growth percentage at 0.1 uM incubated for 48 hrs by sulforhodamine B assay relative to control; conditions: read-out: Activity
CCRF-CEM = assay: Growth inhibition of human CCRF-CEM cells assessed as growth percentage at 0.1 uM incubated for 48 hrs by sulforhodamine B assay relative to control; conditions: read-out: Activity
MDA-MB-231 = assay: Growth inhibition of human MDA-MB-231/ATCC cells assessed as growth percentage at 0.01 uM incubated for 48 hrs by sulforhodamine B assay relative to control; conditions: read-out: Activity
MCF7 = assay: Growth inhibition of human MCF7 cells assessed as growth percentage at 0.01 uM incubated for 48 hrs by sulforhodamine B assay relative to control; conditions: read-out: Activity
A498 [15] = assay: Growth inhibition of human A498 cells assessed as growth percentage at 0.01 uM incubated for 48 hrs by sulforhodamine B assay relative to control; conditions: read-out: Activity
SK-OV-3 = assay: Growth inhibition of human SK-OV-3 cells assessed as growth percentage at 0.01 uM incubated for 48 hrs by sulforhodamine B assay relative to control; conditions: read-out: Activity
SW-620 = assay: Growth inhibition of human SW-620 cells assessed as growth percentage at 0.01 uM incubated for 48 hrs by sulforhodamine B assay relative to control; conditions: read-out: Activity
A549 = assay: Growth inhibition of human A549/ATCC cells assessed as growth percentage at 0.01 uM incubated for 48 hrs by sulforhodamine B assay relative to control; conditions: read-out: Activity
SR = assay: Growth inhibition of human SR cells assessed as growth percentage at 0.01 uM incubated for 48 hrs by sulforhodamine B assay relative to control; conditions: read-out: Activity
K562 [16] = assay: Growth inhibition of human K562 cells assessed as growth percentage at 0.01 uM incubated for 48 hrs by sulforhodamine B assay relative to control; conditions: read-out: Activity
[17] = read-out: LC50 (the source's name)

Nc1nc2[nH]c(CN3CCN(c4cc(Cl)cc(Cl)c4)CC3)c(CN3CCN(c4cc(Cl)cc(Cl)c4)CC3)c2c(=O)[nH]1
growth at 10 µM (DU-145): 81.3%
growth at 10 µM (A498 [1]): 64.4%
growth at 10 µM (786-0 [2]): 72.6%
growth at 10 µM (NCI/ADR-RES): 87.6%
growth at 10 µM (HOP-92): 66.2%
growth at 10 µM (RPMI-8226): 38.4%
GI50 (TK-10): 1800 nM
TGI (TK-10): 3260 nM
GI50 (SN12C [3]): 1910 nM
TGI (SN12C [3]): 3910 nM
GI50 (786-0 [4]): 1570 nM
TGI (786-0 [4]): 3180 nM
GI50 (OVCAR-8 [5]; Homo sapiens, OVCAR-8, 48 h): 2050 nM
TGI (OVCAR-8 [5]; Homo sapiens, OVCAR-8, 48 h): 4480 nM
GI50 (IGROV-1 [6]): 1950 nM
TGI (IGROV-1 [6]): 3980 nM
GI50 (NCI-H226 [7]; 48 h): 1580 nM and 15800 nM
CC50 (NCI-H226 [7]; 48 h): > 100000 nM
TGI (NCI-H226 [7]; Homo sapiens): 5370 nM
GI50 (HOP-62): 1670 nM
TGI (HOP-62): 3450 nM
growth at 0.1 µM (MDA-MB-468): 94%
growth at 100 µM (SN12C [8]): -35%
growth at 100 µM (CAKI-1): -97%
growth at 100 µM (OVCAR-4): -82%
growth at 100 µM (LOX IMVI): -35%
growth at 1 µM (IGROV-1 [9]): 96%
growth at 1 µM (U-251): 90%
growth at 1 µM (NCI-H322M [10]): 100%
growth at 0.1 µM (OVCAR-8 [11]): 97%
growth at 0.1 µM (MDA-MB-435): 97%
growth at 0.1 µM (SF-295): 93%
growth at 0.1 µM (KM12): 105%
growth at 0.1 µM (HT-29): 110%
growth at 0.1 µM (HCC 2998): 99%
growth at 0.1 µM (NCI-H322M [12]): 102%
growth at 0.1 µM (NCI-H226 [13]): 89%
growth at 0.1 µM (K562 [14]): 96%
growth at 0.1 µM (CCRF-CEM): 98%
growth at 0.01 µM (MDA-MB-231): 106%
growth at 0.01 µM (MCF7): 86%
growth at 0.01 µM (A498 [15]): 90%
growth at 0.01 µM (SK-OV-3): 95%
growth at 0.01 µM (SW-620): 96%
growth at 0.01 µM (A549): 97%
growth at 0.01 µM (SR): 102%
growth at 0.01 µM (K562 [16]): 108%

CCCCCCCC(=O)Nc1nc2[nH]c(CN3CCN(Cc4cccc(F)c4)CC3)c(CN3CCN(Cc4cccc(F)c4)CC3)c2c(=O)[nH]1
growth at 10 µM (DU-145): -74.7%
growth at 10 µM (A498 [1]): 61.6%
growth at 10 µM (786-0 [2]): -100%
growth at 10 µM (NCI/ADR-RES): -66.1%
growth at 10 µM (HOP-92): -7.31%
growth at 10 µM (RPMI-8226): -47.3%
GI50 (TK-10): 1740 nM
TGI (TK-10): 3260 nM
CC50 (TK-10; TK-10, 48 h, read-out: LC50 (the source's name)): 6110 nM
GI50 (SN12C [3]): 1480 nM
LC50 (SN12C [3]): 6850 nM
TGI (SN12C [3]): 3180 nM
GI50 (786-0 [4]): 1540 nM
LC50 (concentration killing 50% of cells) (786-0 [4]): 5670 nM
TGI (786-0 [4]): 2950 nM
GI50 (OVCAR-8 [5]; 48 h): 210 nM
TGI (OVCAR-8 [5]; 48 h): 410 nM
CC50 (OVCAR-8 [5]; 48 h): 800 nM
GI50 (OVCAR-8 [5]; Homo sapiens, OVCAR-8, 48 h): 205 nM
TGI (OVCAR-8 [5]; Homo sapiens, OVCAR-8, 48 h): 405 nM
CC50 (OVCAR-8 [5]; Homo sapiens, OVCAR-8, 48 h): 801 nM
GI50 (IGROV-1 [6]): 1430 nM
TGI (IGROV-1 [6]): 3200 nM
CC50 (IGROV-1 [6]; [17]): 7140 nM
TGI (NCI-H226 [7]; Homo sapiens): 3840 nM
GI50 (NCI-H226 [7]; Homo sapiens, NCI-H226, 48 h): 1840 nM
CC50 (NCI-H226 [7]; Homo sapiens, NCI-H226, 48 h): 8040 nM
GI50 (HOP-62): 1420 nM
TGI (HOP-62): 2850 nM
CC50 (HOP-62; [17]): 5700 nM
growth at 0.1 µM (MDA-MB-468): 95%
growth at 100 µM (SN12C [8]): -69%
growth at 100 µM (CAKI-1): -96%
growth at 100 µM (OVCAR-4): -91%
growth at 100 µM (LOX IMVI): -75%
growth at 1 µM (IGROV-1 [9]): 72%
growth at 1 µM (U-251): -88%
growth at 1 µM (NCI-H322M [10]): 77%
growth at 0.1 µM (OVCAR-8 [11]): 103%
growth at 0.1 µM (MDA-MB-435): 90%
growth at 0.1 µM (SF-295): 94%
growth at 0.1 µM (KM12): 93%
growth at 0.1 µM (HT-29): 104%
growth at 0.1 µM (HCC 2998): 104%
growth at 0.1 µM (NCI-H322M [12]): 92%
growth at 0.1 µM (NCI-H226 [13]): 95%
growth at 0.1 µM (K562 [14]): 87%
growth at 0.1 µM (CCRF-CEM): 94%
growth at 0.01 µM (MDA-MB-231): 105%
growth at 0.01 µM (MCF7): 91%
growth at 0.01 µM (A498 [15]): 66%
growth at 0.01 µM (SK-OV-3): 108%
growth at 0.01 µM (SW-620): 96%
growth at 0.01 µM (A549): 98%
growth at 0.01 µM (SR): 92%
growth at 0.01 µM (K562 [16]): 102%
